Results reported in a melting point compilation (Tetko et al.; mined from patent text by program, amines drawn as free bases though some values may be those of a salt).

Structure (SMILES)	melting point [°C]
CCOC(=O)c1cc2cc(C)c(C(F)(F)F)cc2n1[C@H](C)CNC(=O)OC(C)(C)C	103 to 105
O=C(c1ccccc1)N(N=Cc1ccccc1)c1ccccc1F	97 to 99
C[C@@H](N(CC(=O)O)C(=O)c1ccc(C(F)(F)F)cc1)[C@](O)(Cn1cncn1)c1ccc(F)cc1F	132 to 135
O=C(c1ccc([N+](=O)[O-])cc1)N1CC2CC2(c2ccc(Cl)cc2)C1 (stereo not drawn)	177 to 180
O=C1NC(=O)C(Cc2ccc3oc(Cc4ccc(O)cc4)nc3c2)S1 (stereo not drawn)	201 to 204
NCc1sc(C(c2ccc(Cl)cc2)c2c(Cl)cc(-n3ncc(=O)[nH]c3=O)cc2Cl)nc1-c1ccccc1 (stereo not drawn)	170
CC1(C)CCC(C)(C)c2cc(N(Cc3ccc(Cl)cc3)C(=O)Nc3ccc(C(=O)O)cc3)ccc21	126 to 133
CCC[C@H]1C(=O)N(S(=O)(=O)c2cccc3ccccc23)[C@H]2CCN(S(C)(=O)=O)[C@H]12 (relative stereo)	185 to 187
CN(C)CCCN1c2ccccc2N(C)C(=O)c2cccnc21	98.5 to 100
CC(Cc1ccc(F)c(F)c1)C(=O)O (stereo not drawn)	55 to 56
CC(C)(C)OC(=O)N1CCN(C(=O)C2CCCCN2C(=O)OCc2ccccc2)CC1 (stereo not drawn)	102
O=C(Oc1ccc2cc(CN3CCCC3)ccc2c1)N1CCC(c2ccc(Cl)cc2)CC1	121 to 123
CN1CCn2nc(Nc3cc(-c4cccc(N5Cc6cc(N(C)C)ccc6C5=O)c4CO)cn(C)c3=O)cc2C1	148 to 150
O=C(Nc1ccc(Br)cn1)C(F)(F)F	70 to 72
CC(C)CNC(=O)N(CCCl)N=O	51
CCC(O)c1ccc(Cl)c2nc3n(c12)CCCN3c1c(Cl)cc(OC)cc1Cl (stereo not drawn)	206 to 208
COc1ccc2ccc(N3C(=O)c4ccccc4C3CC(=O)CCN(C)C)nc2n1 (stereo not drawn)	140
COc1ccc(CNc2c(NC(C)(C)C)c(=O)c2=O)c(OC)c1	225 to 226
COc1nc(C)nc(NC(=O)NS(=O)(=O)c2ccccc2-n2nnnc2C)n1	207 to 209

Structure (SMILES)	melting point [°C]
Nc1cc2nc(O)c(O)nc2c2c1CCCC2	> 300
CC(=O)N1CCc2cc(Br)cc(C#N)c21	170 to 175
Cc1cc2c(cc1OCCn1ccnc1)CCCC2=O	118 to 120
CC(C(=O)O)c1ccc(-c2cn3ccccc3n2)cc1 (stereo not drawn)	244 to 246
O=[N+]([O-])c1c(Cl)nc(C2CC2)nc1Cl	50 to 52
CCNC(=O)c1cccc(C(F)(F)F)c1	98 to 99
COc1cc([N+](=O)[O-])c(NCCCO)cc1O	149
C1=C(/C=C/c2ccccc2)CCN(Cc2n[nH]c3ccccc23)C1	207 to 209
CCN(CC)C(=O)c1nn(-c2cccc(OC)c2)c(=O)c2c1c1ccc(Cl)cc1n2C	208
CCc1nc(-c2ccc(N3CCN(C(=O)c4ccccc4C(F)(F)F)CC3)nn2)no1	204
CC1SC(=O)NN=C1c1ccc2c(c1)C(=Cc1ccccc1O)C(=O)N2 (stereo not drawn)	233
CCOC(=O)c1ccc(S(=O)(=O)C(Br)(Br)Br)cc1	134 to 136
CC(C)(C)C(NC(=O)c1ccc(Br)cc1)NC(=NC#N)Nc1cccnc1 (stereo not drawn)	180 to 181
CON=C(C(=O)Nc1ccc(C(=O)O)cc1)c1ccc2c(c1)C(C)(C)CCC2(C)C	208 to 209
Cn1cc(-c2cc(-c3ccncc3)ccn2)n(-c2ccc(C(C)(C)C#N)cc2)c1=O	226
Cc1cc(CSCCNC(=C[N+](=O)[O-])NCC(O)c2ccccc2)sc1CN(C)C (stereo not drawn)	114 to 115
CS(=O)(=O)N[C@@H]1CCCC[C@H]1Nc1nc(Nc2ccc3c(c2)CCC(F)(F)CC3)ncc1Cl	118 to 128
CCOC(=O)C(C)OCc1cc2nc(Cl)ccc2n1S(=O)(=O)c1ccc2nsnc2c1 (stereo not drawn)	77 to 79
CCCCCCCCCCCCCCOC(=O)OC1CC(C)(C)N(C)C(C)(C)C1	32 to 34
